Experimental data: the CheMixHub viscosity set

Experiment: xn = mol fraction of the nth substance listed

CCOC(=O)c1ccccc1 + COCCO
viscosity [mPa·s], 101 kPa
Settings | x2 = 0.1045 | x2 = 0.199 | x2 = 0.2979 | x2 = 0.4016 | x2 = 0.5007 | x2 = 0.6025 | x2 = 0.6973 | x2 = 0.7982 | x2 = 0.8977
298.15 K | 1.883 | 1.824 | 1.803 | 1.757 | 1.774 | 1.752 | 1.773 | 1.761 | 1.783
303.15 K | 1.703 | 1.65 | 1.631 | 1.587 | 1.598 | 1.581 | 1.592 | 1.581 | 1.602
308.15 K | 1.55 | 1.501 | 1.48 | 1.441 | 1.448 | 1.431 | 1.439 | 1.431 | 1.444

CCOC(=O)c1ccccc1 + COCCOCCOC
viscosity [mPa·s], 101.33 kPa
Settings | x2 = 0.1021 | x2 = 0.2028 | x2 = 0.3004 | x2 = 0.4044 | x2 = 0.5041 | x2 = 0.6032 | x2 = 0.7035 | x2 = 0.8017 | x2 = 0.9022
298.15 K | 1.805 | 1.694 | 1.59 | 1.485 | 1.389 | 1.301 | 1.216 | 1.134 | 1.056
303.15 K | 1.629 | 1.533 | 1.442 | 1.35 | 1.266 | 1.189 | 1.111 | 1.039 | 0.967
308.15 K | 1.476 | 1.39 | 1.311 | 1.231 | 1.157 | 1.088 | 1.02 | 0.957 | 0.895
313.15 K | 1.342 | 1.268 | 1.198 | 1.126 | 1.062 | 1 | 0.94 | 0.883 | 0.829
318.15 K | 1.228 | 1.161 | 1.098 | 1.035 | 0.976 | 0.922 | 0.868 | 0.818 | 0.77

CCC(C)CO (configuration not stated) + COc1ccccc1
viscosity [mPa·s], 101.33 kPa
Settings | x2 = 0.1005 | x2 = 0.2004 | x2 = 0.3003 | x2 = 0.4012 | x2 = 0.5001 | x2 = 0.6005 | x2 = 0.6996 | x2 = 0.8001 | x2 = 0.9003
303.15 K | 2.761 | 2.126 | 1.665 | 1.347 | 1.149 | 1.032 | 0.968 | 0.932 | 0.912
313.15 K | 2.026 | 1.601 | 1.296 | 1.084 | 0.952 | 0.868 | 0.824 | 0.803 | 0.794
323.15 K | 1.552 | 1.246 | 1.022 | 0.872 | 0.784 | 0.739 | 0.718 | 0.707 | 0.698

CCOC(=O)c1ccccc1 + COc1ccccc1
viscosity [mPa·s], 101 kPa
Settings | x1 = 0.0786 | x1 = 0.1616 | x1 = 0.2448 | x1 = 0.3356 | x1 = 0.4336 | x1 = 0.5357 | x1 = 0.6386 | x1 = 0.7505 | x1 = 0.8709
303.15 K | 0.973 | 1.026 | 1.085 | 1.156 | 1.229 | 1.323 | 1.416 | 1.521 | 1.631
308.15 K | 0.896 | 0.949 | 1.007 | 1.071 | 1.143 | 1.224 | 1.311 | 1.404 | 1.504
313.15 K | 0.805 | 0.856 | 0.908 | 0.963 | 1.026 | 1.101 | 1.174 | 1.256 | 1.342

COC(=O)c1ccccc1O + CS(C)=O
303.15 K, 101 kPa
Settings | viscosity [mPa·s]
x1 = 0.1215 | 1.932
x1 = 0.1918 | 2.13
x1 = 0.2697 | 2.186
x1 = 0.3567 | 2.283
x1 = 0.5628 | 2.356
x1 = 0.6882 | 2.38
x1 = 0.8323 | 2.403

O=C(O)/C=C\C(=O)O + C[N+](C)(C)CCO.[Cl-]
viscosity [mPa·s], 101.3 kPa
Settings | 293.2 K | 303.2 K | 313.2 K
x2 = 0.49 | – | 8065 | 4196
x2 = 0.597 | 7984 | 4891 | 2579
x2 = 0.669 | 4183 | 2672 | 1488

Cc1cccc([N+](=O)[O-])c1 + Cc1ccc(C)cc1
308.15 K, 101.33 kPa
Settings | viscosity [mPa·s]
x2 = 0.1004 | 1.322
x2 = 0.2046 | 1.122
x2 = 0.2963 | 1.004
x2 = 0.4016 | 0.908
x2 = 0.4954 | 0.846
x2 = 0.6076 | 0.768
x2 = 0.7023 | 0.706
x2 = 0.8036 | 0.649
x2 = 0.8975 | 0.6

Cc1ccccc1[N+](=O)[O-] + Cc1ccc(C)cc1
308.15 K, 101.33 kPa
Settings | viscosity [mPa·s]
x2 = 0.1044 | 1.342
x2 = 0.2016 | 1.153
x2 = 0.2968 | 1.034
x2 = 0.4024 | 0.942
x2 = 0.4938 | 0.879
x2 = 0.6032 | 0.81
x2 = 0.6951 | 0.754
x2 = 0.8009 | 0.681
x2 = 0.8955 | 0.624

Cc1cccc([N+](=O)[O-])c1 + Cc1cccc(C)c1
308.15 K, 101.33 kPa
Settings | viscosity [mPa·s]
x2 = 0.1017 | 1.33
x2 = 0.2062 | 1.133
x2 = 0.3032 | 1.014
x2 = 0.4055 | 0.926
x2 = 0.5001 | 0.861
x2 = 0.6028 | 0.785
x2 = 0.6999 | 0.72
x2 = 0.8043 | 0.653
x2 = 0.9007 | 0.59

Cc1ccccc1[N+](=O)[O-] + Cc1cccc(C)c1
308.15 K, 101.33 kPa
Settings | viscosity [mPa·s]
x2 = 0.1014 | 1.358
x2 = 0.2022 | 1.154
x2 = 0.3044 | 1.027
x2 = 0.4036 | 0.938
x2 = 0.499 | 0.87
x2 = 0.6052 | 0.792
x2 = 0.6913 | 0.735
x2 = 0.8068 | 0.654
x2 = 0.8993 | 0.596

CCCCCN + Cc1ccccc1
303.15 K, 101 kPa
Settings | viscosity [mPa·s]
x2 = 0.1128 | 0.556
x2 = 0.2313 | 0.5323
x2 = 0.3808 | 0.5104
x2 = 0.4933 | 0.5008
x2 = 0.5377 | 0.4969
x2 = 0.6473 | 0.4932
x2 = 0.7388 | 0.4938
x2 = 0.8447 | 0.4984
x2 = 0.9229 | 0.5071

CCOC(=O)c1ccccc1 + Cc1ccccc1
viscosity [mPa·s], 101 kPa
Settings | 298.15 K | 303.15 K | 313.15 K
x1 = 0.0488 | – | 0.577 | 0.504
x1 = 0.1223 | – | 0.652 | 0.562
x1 = 0.1524 | 0.6845 | – | –
x1 = 0.1712 | – | 0.701 | 0.601
x1 = 0.2201 | – | 0.749 | 0.637
x1 = 0.2923 | – | 0.823 | 0.694
x1 = 0.3425 | – | 0.875 | 0.734
x1 = 0.3548 | 0.9076 | – | –
x1 = 0.4176 | – | 0.954 | 0.795
x1 = 0.4918 | – | 1.035 | 0.858
x1 = 0.5675 | – | 1.123 | 0.926
x1 = 0.63 | 1.279 | – | –
x1 = 0.6436 | – | 1.22 | 1.001
x1 = 0.7352 | 1.452 | – | –
x1 = 0.7452 | – | 1.359 | 1.109
x1 = 0.8194 | – | 1.473 | 1.198
x1 = 0.8445 | 1.655 | – | –
x1 = 0.8969 | – | 1.605 | 1.312
x2 = 0.2273 | 1.495 | – | –
x2 = 0.5945 | 0.939 | – | –
x2 = 0.8392 | 0.679 | – | –

Cc1cccc([N+](=O)[O-])c1 + Cc1ccccc1
303.15 K, 101.33 kPa
Settings | viscosity [mPa·s]
x1 = 0.201 | 0.63
x1 = 0.406 | 0.8
x1 = 0.603 | 1
x1 = 0.8 | 1.33

Cc1cccc([N+](=O)[O-])c1 + Cc1ccccc1C
308.15 K, 101.33 kPa
Settings | viscosity [mPa·s]
x2 = 0.1044 | 1.384
x2 = 0.2068 | 1.211
x2 = 0.2995 | 1.102
x2 = 0.4028 | 1.01
x2 = 0.5015 | 0.944
x2 = 0.6123 | 0.867
x2 = 0.7055 | 0.81
x2 = 0.8268 | 0.742
x2 = 0.9132 | 0.698

Cc1ccccc1[N+](=O)[O-] + Cc1ccccc1C
308.15 K, 101.33 kPa
Settings | viscosity [mPa·s]
x2 = 0.1023 | 1.548
x2 = 0.2014 | 1.392
x2 = 0.3006 | 1.262
x2 = 0.4018 | 1.143
x2 = 0.5041 | 1.027
x2 = 0.6102 | 0.928
x2 = 0.7028 | 0.85
x2 = 0.8056 | 0.773
x2 = 0.9008 | 0.709
